Data reported in ChEMBL document CHEMBL4396967, “In vitro cytotoxicity screening to identify novel anti-osteosarcoma therapeutics targeting pyruvate dehydrogenase kinase 2” (Bioorg Med Chem Lett, 2019).
Activity calls are given as the source filed them. No cut-off for these calls is given here.

Key:
MG-63 [1] = experiment: Antiproliferative activity against human MG63 cells assessed as reduction in cell viability at 10 uM incubated for 72 hrs by MTT assay relative to control; assay type: functional; conditions: MG-63, 72 h
MG-63 [2] = experiment: Antiproliferative activity against human MG63 cells assessed as reduction in cell viability incubated for 72 hrs by MTT assay; assay type: functional, cell-based; conditions: MG-63, 72 h
SAOS-2 [3] = experiment: Antiproliferative activity against human Saos2 cells assessed as reduction in cell viability at 10 uM incubated for 72 hrs by MTT assay relative to control; assay type: functional; conditions: SAOS-2, 72 h
SAOS-2 [4] = experiment: Antiproliferative activity against human Saos2 cells assessed as reduction in cell viability incubated for 72 hrs by MTT assay; assay type: functional, cell-based; conditions: SAOS-2, 72 h
[5] = biological target: T1, [Pyruvate dehydrogenase (acetyl-transferring)] kinase isozyme 2, mitochondrial (Homo sapiens, UniProt Q15119); experiment: Inhibition of PDK2 (unknown origin) using PDCE1 as substrate at 5 uM incubated for 30 mins by kinase-Glo reagent based luminescence assay relative to control
[6] = biological target: T1, [Pyruvate dehydrogenase (acetyl-transferring)] kinase isozyme 2, mitochondrial; experiment: Inhibition of recombinant human N-terminal His6-tagged SUMO-fused PDK2 expressed in Escherichia coli BL-21 cells preincubated for 15 mins followed by addition of [gamma33-ATP] and measured after 90 secs by Scintillation counting method
[7] = biological target: T1, [Pyruvate dehydrogenase (acetyl-transferring)] kinase isozyme 2, mitochondrial; experiment: Inhibition of PDK2 (unknown origin) using PDCE1 as substrate incubated for 30 mins by kinase-Glo reagent based luminescence assay
[8] = biological target: T1, [Pyruvate dehydrogenase (acetyl-transferring)] kinase isozyme 2, mitochondrial; experiment: Inhibition of PDK2 (unknown origin)
[9] = biological target: T1, [Pyruvate dehydrogenase (acetyl-transferring)] kinase isozyme 2, mitochondrial; experiment: Binding affinity to PDK2 (unknown origin) assessed as dissociation constant by ITC analysis
[10] = biological target: [Pyruvate dehydrogenase (acetyl-transferring)] kinase isozyme 1, mitochondrial (Homo sapiens, UniProt Q15118); experiment: Inhibition of PDK1 (unknown origin) using PDCE1 as substrate incubated for 30 mins by kinase-Glo reagent based luminescence assay
[Pyruvate dehydrogenase (acetyl-transferring)] kinase isozyme 1, mitochondrial, sequence (Q15118 whole entry): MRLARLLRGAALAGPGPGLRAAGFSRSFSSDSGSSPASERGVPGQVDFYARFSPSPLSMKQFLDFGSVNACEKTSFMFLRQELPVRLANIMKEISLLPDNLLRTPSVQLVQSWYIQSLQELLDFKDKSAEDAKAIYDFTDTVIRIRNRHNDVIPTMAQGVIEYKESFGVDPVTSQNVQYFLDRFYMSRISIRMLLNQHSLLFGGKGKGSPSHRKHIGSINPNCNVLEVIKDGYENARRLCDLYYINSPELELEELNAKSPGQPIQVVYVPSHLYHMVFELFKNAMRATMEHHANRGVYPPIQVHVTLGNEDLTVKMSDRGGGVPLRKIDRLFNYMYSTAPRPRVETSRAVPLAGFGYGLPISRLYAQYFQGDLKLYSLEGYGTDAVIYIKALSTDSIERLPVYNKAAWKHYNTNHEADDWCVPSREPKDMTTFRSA

[11] = biological target: [Pyruvate dehydrogenase (acetyl-transferring)] kinase isozyme 3, mitochondrial (Homo sapiens, UniProt Q15120); experiment: Inhibition of PDK3 (unknown origin) using PDCE1 as substrate incubated for 30 mins by kinase-Glo reagent based luminescence assay
[Pyruvate dehydrogenase (acetyl-transferring)] kinase isozyme 3, mitochondrial, sequence (Q15120 whole entry): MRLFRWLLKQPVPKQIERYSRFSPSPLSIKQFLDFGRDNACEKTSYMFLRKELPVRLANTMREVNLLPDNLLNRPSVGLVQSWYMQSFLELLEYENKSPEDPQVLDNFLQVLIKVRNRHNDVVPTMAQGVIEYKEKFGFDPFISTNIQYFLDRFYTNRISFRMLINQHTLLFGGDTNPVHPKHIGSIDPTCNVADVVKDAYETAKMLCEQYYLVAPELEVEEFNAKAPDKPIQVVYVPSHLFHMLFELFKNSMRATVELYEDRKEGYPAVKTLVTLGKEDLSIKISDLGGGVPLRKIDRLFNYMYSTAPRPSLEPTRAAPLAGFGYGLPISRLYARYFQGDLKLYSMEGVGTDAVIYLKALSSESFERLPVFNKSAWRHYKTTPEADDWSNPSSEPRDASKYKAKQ

[12] = biological target: [Pyruvate dehydrogenase (acetyl-transferring)] kinase isozyme 4, mitochondrial (Homo sapiens, UniProt Q16654); experiment: Inhibition of PDK4 (unknown origin) using PDCE1 as substrate incubated for 30 mins by kinase-Glo reagent based luminescence assay
[Pyruvate dehydrogenase (acetyl-transferring)] kinase isozyme 4, mitochondrial, sequence (Q16654 whole entry): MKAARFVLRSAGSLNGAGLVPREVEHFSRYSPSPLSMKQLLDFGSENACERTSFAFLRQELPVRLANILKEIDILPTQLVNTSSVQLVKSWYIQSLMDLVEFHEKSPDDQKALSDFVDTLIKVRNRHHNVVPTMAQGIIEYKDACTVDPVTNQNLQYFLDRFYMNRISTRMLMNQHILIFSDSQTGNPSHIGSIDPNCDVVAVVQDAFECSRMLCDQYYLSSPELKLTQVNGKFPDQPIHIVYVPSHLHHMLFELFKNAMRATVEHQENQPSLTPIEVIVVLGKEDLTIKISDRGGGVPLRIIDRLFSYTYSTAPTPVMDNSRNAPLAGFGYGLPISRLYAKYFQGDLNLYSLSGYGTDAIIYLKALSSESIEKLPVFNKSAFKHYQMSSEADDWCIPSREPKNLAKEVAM

Homo sapiens [13] = species: Homo sapiens; experiment: Selectivity index, ratio of EC50 of PDK1 (unknown origin) to EC50 of PDK2 (unknown origin)
Homo sapiens [14] = species: Homo sapiens; experiment: Selectivity index, ratio of EC50 of PDK3 (unknown origin) to EC50 of PDK2 (unknown origin)
Homo sapiens [15] = species: Homo sapiens; experiment: Selectivity index, ratio of EC50 of PDK4 (unknown origin) to EC50 of PDK2 (unknown origin)
[16] = biological target: T1, [Pyruvate dehydrogenase (acetyl-transferring)] kinase isozyme 2, mitochondrial; experiment: Inhibition of PDK2 in human MG63 cells assessed as reduction in PDC phosphorylation at 2 or 5 uM incubated for 12 hrs by Western blot analysis; assay type: cell-based
[17] = biological target: T1, [Pyruvate dehydrogenase (acetyl-transferring)] kinase isozyme 2, mitochondrial; experiment: Inhibition of PDK2 in human MG63 cells assessed as reduction in lactate formation at 2 to 10 uM incubated for 4 hrs; assay type: cell-based

inhibition [5] | Structure (SMILES) | inhibition at 10 µM (MG-63 [1]) | IC50 (MG-63 [2]) | inhibition at 10 µM (SAOS-2 [3]) | IC50 (SAOS-2 [4]) | further results
inactive | Cc1ccccc1OCC(O)Cn1c(C2CC(=O)N(C(C)(C)C)C2)nc2ccccc21 (centres undefined) | 72.8% | 7.7 µM | 59.3% | 8.9 µM | –
54.1% | CNC(=O)COc1coc(CN2CCN(c3ccccc3)CC2)cc1=O | 66.1% | 7.9 µM | 71.2% | 6.7 µM | EC50 [7]: 5.2 µM
64.3% | CC(C)NC(=O)COc1coc(CN2CCN(c3ccccc3)CC2)cc1=O | 70.6% | 5.8 µM | 74.5% | 5.3 µM | EC50 [7]: 3.8 µM
inactive | O=C(CCn1ccc(=O)[nH]c1=O)N1CCN(C2=CC3CCCCC3N=N2)CC1 (centres undefined) | 84.4% | 2.1 µM | 86.7% | 1.8 µM | –
inactive | O=C(C1=C(CO)C(=O)N(CCCN2CCOCC2)[C@H]1c1ccncc1)c1cccs1 | 86.9% | 1.2 µM | 79.3% | 2 µM | –
inactive | O=C(CCn1ccc(=O)[nH]c1=O)N1CCC(Cc2n[nH]c(=O)n2-c2ccccc2F)CC1 | 62.7% | 7.1 µM | 48.9% | > 10 µM | –
inactive | COc1cccc(C(=O)NCc2nc(N3CCCC3)nc(N3CCOCC3)n2)c1 | 53.8% | 9.2 µM | 68.5% | 8.1 µM | –

The next lines start with the compound.

Structure (SMILES) | inhibition [5] | inhibition at 10 µM (MG-63 [1]) | IC50 (MG-63 [2]) | inhibition at 10 µM (SAOS-2 [3]) | IC50 (SAOS-2 [4]) | further results
Cc1cc(=O)n2nc(N3CCN(C(=O)Cc4c[nH]c5ccccc45)CC3)nc2[nH]1 | inactive | 60.8% | 9.4 µM | 75.9% | 7.6 µM | –
COc1ccc(N2CCn3c2nnc(C(=O)NCCCN(C)C)c3=O)cc1 | inactive | 71.1% | 4.9 µM | 65.4% | 7.9 µM | –
O=C(COc1coc(CN2CCN(c3cccc(Cl)c3)CC2)cc1=O)NC1CCCC1 | 47.5% | 62.3% | 8.5 µM | 65.3% | 7.7 µM | –
O=S(=O)(c1ccc(O)cc1O)N1Cc2cc(O)cc(O)c2C1 | – | – | – | – | – | EC50 [6]: 0.456 µM
CSc1nc(N2CCOCC2)c2cnn(CCNC(=O)C3CCCC3)c2n1 | inactive | 53.3% | > 10 µM | 45.1% | > 10 µM | –
CN(C)C(=O)c1ccc(S(=O)(=O)c2ccc(NC(=O)[C@@](C)(O)C(F)(F)F)c(Cl)c2)cc1 | – | – | – | – | – | EC50 [8]: 0.08 µM
CN(C)c1cncc(OC2CCN(C(=O)Cc3c[nH]c4ccccc34)C2)n1 (centres undefined) | inactive | 83.9% | 2.8 µM | 87.7% | 2.2 µM | –
Cc1cc(N2CCCCC2)nc(CNC(=O)CNC(=O)c2ccccc2)n1 | 20.1% | 88.5% | 2.7 µM | 77.6% | 4.8 µM | –
CC(C)NC(=O)COc1coc(CN2CCN(c3ccccc3F)CC2)cc1=O | 79.7% | 78.6% | 4.7 µM | 75.3% | 5.6 µM | EC50 [7]: 1.1 µM; Kd [9]: 2.35 µM; EC50 [10]: 11.7 µM; EC50 [11]: 24.5 µM; EC50 [12]: 67 µM; Ratio EC50 (Homo sapiens [13]): 10.6; Ratio EC50 (Homo sapiens [14]): 21.9; Ratio EC50 (Homo sapiens [15]): 60.9; inhibition [16]: Active; inhibition [17]: Active
